The text below walks through data of patent publication US20090239841A1, “Diaryl Ureas as CB1 Antagonists” (priority 2004, published 2009).

The target of this test is T1, hCB1 (Homo sapiens, UniProt P21554).
T1 construct: made in house; host or cells: Sf9 insect cells (baculovirus), P2 membranes
Briefly: Agonist-induced GTP binding (GTPγ35S) assay at CB1, Example 8. It is filed as biochemical. Conditions: read-out: IC50. Put shortly: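 Membranes from Sf9 cells co-expressing hCB1 and heterotrimeric G-protein (10 μg protein) in Tris pH 7.4 buffer with 5 μM GDP. Test compounds (10^−10–10^−5 M) competed against 1 nM CP55,940 with […] GTPγ35S, 60 min at room temperature. Filter-bound radioactivity by scintillation, expressed as percent above basal.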

[1] abbreviates: IC50 at CB1, determined as described in Example 8.
The mark [2] stands for this setting: Table II, IC50 at CB1, GTP binding with 1 nM CP55,940.
Where [3] appears, read: Table I, IC50 at CB1, GTP binding with 1 nM CP55,940.

The structures appear in SMILES notation. Read-outs that look alike come from different tables or passages of the source.

T1 sequence (P21554 whole entry): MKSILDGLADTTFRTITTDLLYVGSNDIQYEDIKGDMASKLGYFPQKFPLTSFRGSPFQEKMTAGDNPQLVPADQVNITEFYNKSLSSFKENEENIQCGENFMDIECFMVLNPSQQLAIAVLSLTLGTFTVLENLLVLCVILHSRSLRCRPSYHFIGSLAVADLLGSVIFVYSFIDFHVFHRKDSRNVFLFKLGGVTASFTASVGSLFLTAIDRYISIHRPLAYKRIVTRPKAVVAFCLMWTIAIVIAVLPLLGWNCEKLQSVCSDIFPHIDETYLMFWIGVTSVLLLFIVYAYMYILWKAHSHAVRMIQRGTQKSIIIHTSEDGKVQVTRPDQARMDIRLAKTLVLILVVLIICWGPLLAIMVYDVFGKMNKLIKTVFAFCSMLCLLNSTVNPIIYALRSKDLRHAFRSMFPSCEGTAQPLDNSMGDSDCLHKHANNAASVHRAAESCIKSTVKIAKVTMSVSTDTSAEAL

As for `CCOC(=O)c1ccc(NC(=O)Nc2ccc(Cl)nc2)cc1` [Compound 779, ethyl 4-({[(6-chloropyridin-3-yl)amino]carbonyl}amino)benzoate], the half-maximal inhibitory concentration (IC50) (commonly the concentration at which inhibition is half-maximal) under setting [1] was below 2000 nM. The same measure, in the same setting: the figure for `COC(=O)c1ccc(NC(=O)Nc2ccc(O)cc2)cc1` [Compound 747, methyl 4-({[(4-hydroxyphenyl)amino]carbonyl}amino)benzoate] is below 2000 nM; for `CCOC(=O)c1ccc(NC(=O)Nc2ccc(CC#N)cc2)cc1` [Compound 715, ethyl 4-[({[4-(cyanomethyl)phenyl]amino}carbonyl)amino]benzoate] it is below 2000 nM; for `COCc1ccc(NC(=O)Nc2ccc(C(=O)OC)cc2)cc1` [Compound 668, methyl 4-[({[4-(methoxymethyl)phenyl]amino}carbonyl)amino]benzoate] it is below 2000 nM.

`COc1ccc(NC(=O)Nc2ccc(Cl)cc2)cc1` [Compound 229, N-(4-chlorophenyl)-N′-(4-methoxyphenyl)urea]: under setting [2], the IC50 was below 2000 nM. As for `O=C(Nc1ccc(OC(F)(F)F)cc1)Nc1cccc(OC(F)F)c1` [Compound 540, 1-[3-(difluoromethoxy)phenyl]-3-[4-(trifluoromethoxy)phenyl]urea], the IC50 under setting [1] is below 2000 nM. For `COCc1ccc(NC(=O)Nc2ccc(C(C)=O)cc2)cc1` [Compound 271, N-(4-acetylphenyl)-N′-[4-(methoxymethyl)phenyl]urea], the 50% inhibitory concentration (IC50) under setting [2] was below 2000 nM. On to `CCOc1cccc(NC(=O)Nc2ccc(C)c(F)c2)c1` [Compound 681, 1-(3-ethoxyphenyl)-3-(3-fluoro-4-methylphenyl)urea], for which the IC50 under setting [1] was below 2000 nM. With `Cc1n[nH]cc1-c1cccc(NC(=O)Nc2ccc(OC(F)F)cc2)c1` [Compound 116, N-[4-(difluoromethoxy)phenyl]-N′-[3-(3-methyl-1H-pyrazol-4-yl)phenyl]urea], the IC50 under setting [2] is below 2000 nM. As for `CC(C)c1ccc(NC(=O)Nc2ccc(Cl)cc2)cc1` [Compound 182, N-(4-chlorophenyl)-N′-(4-isopropylphenyl)urea], the IC50 under setting [2] is below 2000 nM. `Cc1n[nH]c(C)c1-c1cccc(NC(=O)Nc2ccc(OC(F)F)cc2)c1` [Compound 117, N-[4-(difluoromethoxy)phenyl]-N′-[3-(3,5-dimethyl-1H-pyrazol-4-yl)phenyl]urea]: under setting [2], the IC50 is below 2000 nM. The same measure, in the same setting: for `O=C(Nc1ccc(OC(F)F)cc1)Nc1cccc(-c2cccnc2)c1` [Compound 63, N-[4-(difluoromethoxy)phenyl]-N′-(3-pyridin-3-ylphenyl)urea] the value was below 2000 nM. The same measure, in the same setting: the figure for `O=C(Nc1ccc(OC(F)F)cc1)Nc1ccc(N2CCCCC2)cc1` [Compound 105, N-[4-(difluoromethoxy)phenyl]-N′-(4-piperidin-1-ylphenyl)urea] is below 2000 nM. As to `O=C(Nc1ccc(S(=O)(=O)N2CCNCC2)cc1)Nc1cccc(OC(F)F)c1` [Compound 789, N-[3-(difluoromethoxy)phenyl]-N′-[4-(1-piperazinylsulfonyl)phenyl]urea], under setting [1], the half-inhibitory concentration (IC50) was below 2000 nM.

For `CCOC(=O)c1cccc(NC(=O)Nc2ccc(F)c(F)c2)c1` [Compound 768, ethyl 3-({[(3,4-difluorophenyl)amino]carbonyl}amino)benzoate], under setting [1], the IC50 is below 2000 nM.

In the case of `Cc1ccc(NC(=O)Nc2ccc(F)cc2)cc1` [Compound 172, N-(4-fluorophenyl)-N′-(4-methylphenyl)urea], under setting [2], the IC50 was below 2000 nM. As to `CCOC(=O)c1cccc(NC(=O)Nc2ccc(OCC#N)cc2)c1` [Compound 718, ethyl 3-[({[4-(cyanomethoxy)phenyl]amino}carbonyl)amino]benzoate], under setting [1], the IC50 is below 2000 nM. On to `CCOC(=O)c1cccc(NC(=O)Nc2ccc(C)c(Cl)c2)c1` [Compound 770, ethyl 3-({[(3-chloro-4-methylphenyl)amino]carbonyl}amino)benzoate], for which the IC50 under setting [1] is below 2000 nM.

As to `CCc1ccc(NC(=O)Nc2ccc(OC(F)(F)F)cc2)cc1` [Compound 517, 1-(4-ethylphenyl)-3-[4-(trifluoromethoxy)phenyl]urea], under setting [1], the IC50 was below 2000 nM. Same read-out and setting: for `O=C(Nc1ccc(OC(F)F)cc1)Nc1ccc(Cl)cn1` [Compound 634, 1-(5-chloropyridin-2-yl)-3-[4-(difluoromethoxy)phenyl]urea] the value was below 2000 nM. In the case of `CCc1ccc(NC(=O)Nc2ccc(OC)cc2)cc1` [Compound 228, N-(4-ethylphenyl)-N′-(4-methoxyphenyl)urea], under setting [2], the IC50 is below 2000 nM.

Regarding `CCOc1ccc(NC(=O)Nc2ccc(C(C)=O)cc2)cc1` [Compound 413, 1-(4-acetylphenyl)-3-(4-ethoxyphenyl)urea], the half-maximal inhibitory concentration (IC50) under setting [1] is below 2000 nM. For `CCOC(=O)c1ccc(NC(=O)Nc2cccc(C#N)c2)cc1` [Compound 511, ethyl 4-({[(3-cyanophenyl)amino]carbonyl}amino)benzoate], the IC50 under setting [1] was below 2000 nM. Same read-out and setting: the figure for `CCOc1cccc(NC(=O)Nc2cc(F)cc(F)c2)c1` [Compound 702, 1-(3,5-difluorophenyl)-3-(3-ethoxyphenyl)urea] is below 2000 nM; for `Cc1cc(NC(=O)Nc2ccc(OCC#N)cc2)ccc1F` [Compound 731, 1-[4-(cyanomethoxy)phenyl]-3-(4-fluoro-3-methylphenyl)urea] it is below 2000 nM.

`CCc1ccc(NC(=O)Nc2ccc(CC)cc2)cc1` [Compound 21, N,N′-bis(4-ethylphenyl)urea]: the 50% inhibitory concentration (IC50) under setting [3] was below 2000 nM. On to `CCCOc1ccc(NC(=O)Nc2ccc(C#N)cc2)cc1` [Compound 272, N-(4-cyanophenyl)-N′-(4-propoxyphenyl)urea], for which the IC50 under setting [2] is below 2000 nM. Still for that read-out and setting: the figure for `O=C(Nc1ccc(OC(F)F)cc1)Nc1ccc2ncccc2c1` [Compound 129, N-[4-(difluoromethoxy)phenyl]-N′-quinolin-6-ylurea] is below 2000 nM. For `CCc1ccc(NC(=O)Nc2ccc3c(c2)CCC3)cc1` [Compound 442, 1-(2,3-dihydro-1H-inden-5-yl)-3-(4-ethylphenyl)urea], under setting [1], the IC50 is below 2000 nM. On the same count and under the same terms, for `CC(C)Oc1ccc(NC(=O)Nc2cc(F)cc(F)c2)cc1` [Compound 709, 1-(3,5-difluorophenyl)-3-(4-isopropoxyphenyl)urea] the value was below 2000 nM. For the compound `Cc1ccc(NC(=O)Nc2ccc(CCO)cc2)cc1C` [Compound 761, 1-(3,4-dimethylphenyl)-3-[4-(2-hydroxyethyl)phenyl]urea], the IC50 under setting [1] is below 2000 nM.

For the compound `CCOC(=O)c1ccc(NC(=O)Nc2ccc(OC)cc2)cc1` [Compound 594, ethyl 4-({[(4-methoxyphenyl)amino]carbonyl}amino)benzoate], the 50% inhibitory concentration (IC50) under setting [1] was below 2000 nM. Take `CCOc1ccc(NC(=O)Nc2cccc(Cl)c2)cc1` [Compound 389, 1-(3-chlorophenyl)-3-(4-ethoxyphenyl)urea]: under setting [1], the IC50 is below 2000 nM.

Take `CCc1cccc(NC(=O)Nc2ccc(CC#N)cc2)c1` [Compound 482, 1-[4-(cyanomethyl)phenyl]-3-(3-ethylphenyl)urea]: the IC50 under setting [1] is below 2000 nM. Still for that read-out and setting: the figure for `Cc1cccnc1NC(=O)Nc1ccc(OC(F)F)cc1` [Compound 632, 1-[4-(difluoromethoxy)phenyl]-3-(3-methylpyridin-2-yl)urea] is below 2000 nM; for `CCOc1cccc(NC(=O)Nc2ccc(F)c(C)c2)c1` [Compound 682, 1-(3-ethoxyphenyl)-3-(4-fluoro-3-methylphenyl)urea] it is below 2000 nM; for `CC(C)Oc1cccc(NC(=O)Nc2cc(F)cc(F)c2)c1` [Compound 708, 1-(3,5-difluorophenyl)-3-(3-isopropoxyphenyl)urea] it is below 2000 nM.

On to `CCOc1ccc(NC(=O)Nc2cccc(OC(F)F)c2)cc1` [Compound 555, 1-[3-(difluoromethoxy)phenyl]-3-(4-ethoxyphenyl)urea], for which the half-maximal inhibitory concentration (IC50) under setting [1] was below 2000 nM. `CC(C)c1ccc(NC(=O)Nc2ccc(C#N)cc2)cc1` [Compound 193, N-(4-cyanophenyl)-N′-(4-isopropylphenyl)urea]: under setting [2], the IC50 was below 2000 nM. For the compound `COc1cccc(NC(=O)Nc2cccc(OC(F)F)c2)c1` [Compound 553, 1-[3-(difluoromethoxy)phenyl]-3-(3-methoxyphenyl)urea], the IC50 under setting [1] was below 2000 nM.

Regarding `CN1CCN(S(=O)(=O)c2ccc(NC(=O)Nc3cccc(OC(F)F)c3)cc2)CC1` [Compound 790, N-[3-(difluoromethoxy)phenyl]-N′-{4-[(4-methyl-1-piperazinyl)sulfonyl]phenyl}urea], the IC50 under setting [1] was below 2000 nM. Still for that read-out and setting: the figure for `CCOC(=O)c1ccc(NC(=O)Nc2ccc(C(C)C)cc2)cc1` [Compound 602, ethyl 4-({[(4-isopropylphenyl)amino]carbonyl}amino)benzoate] is below 2000 nM. Turning to `CC(C)c1ccc(NC(=O)Nc2cccc(C#N)c2)cc1` [Compound 346, 1-(3-cyanophenyl)-3-(4-isopropylphenyl)urea], the half-maximal inhibitory concentration (IC50) under setting [1] was below 2000 nM. Same read-out and setting: the figure for `Cc1ccc(NC(=O)Nc2ccc(OC(F)F)cc2)cc1F` [Compound 606, 1-[4-(difluoromethoxy)phenyl]-3-(3-fluoro-4-methylphenyl)urea] is below 2000 nM; for `CCOc1cccc(NC(=O)Nc2ccc(CC)cc2)c1` [Compound 385, 1-(3-ethoxyphenyl)-3-(4-ethylphenyl)urea] it is below 2000 nM; for `CCCOc1ccc(NC(=O)Nc2ccc([N+](=O)[O-])cc2)cc1` [Compound 562, 1-(4-nitrophenyl)-3-(4-propoxyphenyl)urea] it is below 2000 nM.

As to `CC(=O)c1ccc(NC(=O)Nc2ccc(C(C)C)cc2)cc1` [Compound 348, 1-(4-acetylphenyl)-3-(4-isopropylphenyl)urea], the IC50 under setting [1] was below 2000 nM. `CCCCc1ccc(NC(=O)Nc2ccccc2)cc1` [Compound 46, N-(4-butylphenyl)-N′-phenylurea]: the IC50 under setting [3] was below 2000 nM. Take `CC(C)Oc1ccc(NC(=O)Nc2cccc(C#N)c2)cc1` [Compound 422, 1-(3-cyanophenyl)-3-(4-isopropoxyphenyl)urea]: the IC50 under setting [1] was below 2000 nM.
